In US11974572B2, “Fungicidal compositions” (SYNGENTA PARTICIPATIONS AG, priority 2017, dated 2024) one finds melting point, pest or weed control and inhibition of growth data, which are given here for eight compounds.

The test system of data set [1] is Puccinia recondita f. sp. tritici. In words: Example A1: Puccinia recondita f. sp. tritici / wheat / leaf disc preventative (brown rust). Type of data set: in vivo. Conditions: foliar, 200 ppm in the applied formulation, wheat leaf segments, compared to untreated control leaf disks, read-out: disease control. Here is the method: (§1) Leaf disks or leaf segments of various plant species are cut from plants grown in a greenhouse. The cut leaf disks or segments are placed in multiwell plates (24-well format) onto water agar. The leaf disks are sprayed with a test solution before (preventative) or after (curative) inoculation. Compounds to be tested are prepared as DMSO solutions (max. 10 mg/ml) which are diluted to the appropriate concentration with 0.025% Tween20 just before spraying. The inoculated leaf disks or segments are incubated under defined conditions (temperature, relative humidity, light, etc.) according to the respective test system. A single evaluation of disease level is carried out 3 to 14 days after inoculation, depending on the pathosystem. Percent disease control relative to the untreated check leaf disks or segments is then calculated.
Wheat leaf segments cv. Kanzler were placed on agar in multiwell plates (24-well format) and sprayed with the formulated test compound diluted in water. […] The inoculated leaf segments were incubated at 19° C. and 75% relative humidity (rh) under a light regime of 12 hours light/12 hours darkness in a climate cabinet and the activity of a compound was assessed as percent disease control compared to untreated when an appropriate level of disease damage appears in untreated check leaf segments (7 to 9 days after application). […]

Data set [2] has the same test system. The data set is described as follows: Example A2: Puccinia recondita f. sp. tritici / wheat / leaf disc curative (brown rust). The class given is in vivo. Conditions: foliar, 200 ppm in the applied formulation, wheat leaf segments, compared to untreated control leaf disks, read-out: disease control. As to the method:
as §1
Wheat leaf segments cv. Kanzler are placed on agar in multiwell plates (24-well format). The leaf segments are then inoculated with a spore suspension of the fungus. […] The leaf segments were incubated at 19° C. and 75% relative humidity under a light regime of 12 hours light/12 hours darkness in a climate cabinet and the activity of a compound was assessed as percent disease control compared to untreated when an appropriate level of disease damage appears in untreated check leaf segments (6 to 8 days after application). […]

Another data set concerns Phakopsora pachyrhizi. The data set is described as follows: Example A3: Phakopsora pachyrhizi / soybean / leaf disc preventative (Asian soybean rust). Type of data set: in vivo. The conditions noted are these: foliar, 200 ppm in the applied formulation, soybean leaf disks, compared to untreated control leaf disks, read-out: disease control. Here is the method:
as §1
Soybean leaf disks are placed on water agar in multiwell plates (24-well format) and sprayed with the formulated test compound diluted in water. One day after application leaf discs are inoculated by spraying a spore suspension on the lower leaf surface. […] The activity of a compound is assessed as percent disease control compared to untreated when an appropriate level of disease damage appears in untreated check leaf disks (12 to 14 days after application). […]

In data set [3] the test system is Glomerella lagenarium (Colletotrichum lagenarium). The data set is described as follows: Example A4: Glomerella lagenarium (Colletotrichum lagenarium) liquid culture / cucumber / preventative (anthracnose). The conditions noted are these: Colletotrichum orbiculare, 20 ppm in the applied formulation, compared to untreated control, read-out: disease control. The class given is cell-based. Here is the method:
Mycelia fragments or conidia suspensions of a fungus prepared either freshly from liquid cultures of the fungus or from cryogenic storage, are directly mixed into nutrient broth. DMSO solutions of the test compound (max. 10 mg/ml) are diluted with 0.025% Tween20 by a factor of 50 and 10 μl of this solution is pipetted into a microtiter plate (96-well format). The nutrient broth containing the fungal spores/mycelia fragments is then added to give an end concentration of the tested compound. The test plates are incubated in the dark at 24° C. and 96% relative humidity. The inhibition of fungal growth is determined photometrically after 2 to 7 days, depending on the pathosystem, and percent antifungal activity relative to the untreated check is calculated.
Conidia of the fungus from cryogenic storage are directly mixed into nutrient broth (PDB—potato dextrose broth). After placing a (DMSO) solution of test compound into a microtiter plate (96-well format), the nutrient broth containing the fungal spores is added.
The following compounds at 20 ppm in the applied formulation give at least 80% disease control in this test when compared to untreated control under the same conditions, which show extensive disease development.

Where only a bound is given, the exact number is not on record here.

With `COCC(=O)N(Cc1ccc(-c2noc(C(F)(F)F)n2)cc1)CC(F)(F)F` [X.09, 2-methoxy-N-(2,2,2-trifluoroethyl)-N-[[4-[5-(trifluoromethyl)-1,2,4-oxadiazol-3-yl]phenyl]methyl]acetamide], the melting point lay in the range of 92.6 to 94.3 °C.

`CON(Cc1ccc(-c2noc(C(F)(F)F)n2)cc1)C(=O)NC1CC1` [X.15, 3-cyclopropyl-1-methoxy-1-[[4-[5-(trifluoromethyl)-1,2,4-oxadiazol-3-yl]phenyl]methyl]urea] had a melting point of 84 to 87 °C. In the case of `CCONC(=O)N(Cc1ccc(-c2noc(C(F)(F)F)n2)cc1)OC` [X.16, 3-ethoxy-1-methoxy-1-[[4-[5-(trifluoromethyl)-1,2,4-oxadiazol-3-yl]phenyl]methyl]urea], the melting point lay in the range of 107 to 110 °C. Consider `C=CCNC(=O)N(Cc1ccc(-c2noc(C(F)(F)F)n2)cc1)OC` [X.17, 3-allyl-1-methoxy-1-[[4-[5-(trifluoromethyl)-1,2,4-oxadiazol-3-yl]phenyl]methyl]urea], for which the melting point was in the range of 64 to 70 °C.

The compound `CON(Cc1ccc(-c2noc(C(F)(F)F)n2)cc1)C(=O)NC(C)C` [X.19, 3-isopropyl-1-methoxy-1-[[4-[5-(trifluoromethyl)-1,2,4-oxadiazol-3-yl]phenyl]methyl]urea] returned a melting point of 106 to 107.3 °C. `C#CCNC(=O)N(Cc1ccc(-c2noc(C(F)(F)F)n2)cc1)OC` [X.20, 1-methoxy-3-prop-2-ynyl-1-[[4-[5-(trifluoromethyl)-1,2,4-oxadiazol-3-yl]phenyl]methyl]urea] returned a melting point of 88.9 to 90.6 °C.

With `CN(Cc1ccc(-c2noc(C(F)(F)F)n2)cc1)C(=O)NCC1CC1` [X.22, 3-(cyclopropylmethyl)-1-methyl-1-[[4-[5-(trifluoromethyl)-1,2,4-oxadiazol-3-yl]phenyl]methyl]urea], the pest or weed control at 200 ppm (in data set [1]; in data set [2]; in the data set on Phakopsora pachyrhizi) was not below 80% each time. For the same compound, the inhibition of growth at 20 ppm in data set [3] was not below 80%. Consider `CCN(Cc1ccc(-c2noc(C(F)(F)F)n2)cc1)C(=O)NCC(F)(F)F` [X.23, 1-ethyl-3-(2,2,2-trifluoroethyl)-1-[[4-[5-(trifluoromethyl)-1,2,4-oxadiazol-3-yl]phenyl]methyl]urea], for which the pest or weed control at 200 ppm (in data set [1]; in data set [2]; in the data set on Phakopsora pachyrhizi) was not below 80% each time. Further, the inhibition of growth at 20 ppm in data set [3] was not below 80%.

By melting point is commonly meant the temperature, or range, at which the solid turns liquid.
